Assay results as given in PubChem BioAssay AID248 (DTP/NCI, 2004).
Inconclusive results and toxic doses are left out. No stated cut-off is given here; in the data, active means T/C of 150% or more; inactive means T/C below 125%.

Test system: L1210 leukemia ip in BDF1 mice, survival T/C
Experiment: NCI In Vivo Anticancer Drug Screen. Data for tumor model L1210 Leukemia (intraperitoneal) in B6D2F1 (BDF1) mice
Conditions: endpoint: mean survival time, higher = longer survival
How it was run: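 Mice bearing the transplanted tumor received compound or vehicle. Survival of the treated group was divided by that of the vehicle-treated control group to give the ratio.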

[1] = dose: 25.0 mg/kg/injection, schedule: Q01DX009 (ip), vehicle: saline with Tween-80
[2] = dose: 50.0 mg/kg/injection, schedule: Q01DX009 (ip), vehicle: saline with Tween-80
[3] = dose: 100.0 mg/kg/injection, schedule: Q01DX009 (ip), vehicle: saline with Tween-80
[4] = dose: 100.0 mg/kg/injection, schedule: Q04DX003 (ip), vehicle: saline with Tween-80
[5] = dose: 200.0 mg/kg/injection, schedule: Q04DX003 (ip), vehicle: saline with Tween-80
[6] = dose: 400.0 mg/kg/injection, schedule: Q04DX003 (ip), vehicle: saline with Tween-80
[7] = dose: 100.0 mg/kg/injection, schedule: Q01DX009 (ip), vehicle: Klucel (hydroxypropylcellulose) (HPC)
[8] = dose: 400.0 mg/kg/injection, schedule: Q01DX009 (ip), vehicle: Klucel (hydroxypropylcellulose) (HPC)

Measured: T/C

NC(N)=N/N=C/C(Cl)Cl
inactive: dose: 15.0 mg/kg/injection, schedule: Q01DX Z (ip), vehicle: carboxymethylcellulose (CMC) 103 % of control | [1] 100 % of control | dose: 30.0 mg/kg/injection, schedule: Q01DX Z (ip), vehicle: carboxymethylcellulose (CMC) 97 % of control | dose: 30.0 mg/kg/injection, schedule: Q01DX Z (oral), vehicle: carboxymethylcellulose (CMC) 92 % of control | dose: 37.0 mg/kg/injection, schedule: Q01DX Z (oral), vehicle: carboxymethylcellulose (CMC) 113 % of control | [2] 103 % of control | dose: 50.0 mg/kg/injection, schedule: Q04DX003 (ip), vehicle: saline 98 % of control | dose: 60.0 mg/kg/injection, schedule: Q01DX Z (ip), vehicle: carboxymethylcellulose (CMC) 111 % of control | dose: 60.0 mg/kg/injection, schedule: Q01DX Z (oral), vehicle: carboxymethylcellulose (CMC) 121 % of control | dose: 75.0 mg/kg/injection, schedule: Q01DX001 (oral), vehicle: carboxymethylcellulose (CMC) 113 % of control | dose: 75.0 mg/kg/injection, schedule: Q01DX Z (oral), vehicle: carboxymethylcellulose (CMC) 107 % of control | [3] 121 % of control | dose: 100.0 mg/kg/injection, schedule: Q04DX003 (ip), vehicle: saline 102 % of control | dose: 150.0 mg/kg/injection, schedule: Q01DX001 (oral), vehicle: carboxymethylcellulose (CMC) 104 % of control | dose: 300.0 mg/kg/injection, schedule: Q01DX001 (oral), vehicle: carboxymethylcellulose (CMC) 104 % of control | dose: 300.0 mg/kg/injection, schedule: Q01DX Z (oral), vehicle: carboxymethylcellulose (CMC) 113 % of control | dose: 600.0 mg/kg/injection, schedule: Q01DX001 (oral), vehicle: carboxymethylcellulose (CMC) 117 % of control

C[N+](C)(C)CCCC1C2CCC(C2)C1C[N+](C)(C)C (stereo not given)
inactive: dose: 12.0 mg/kg/injection, schedule: Q01DX009 (ip), vehicle: saline 103 % of control | dose: 12.5 mg/kg/injection, schedule: Q04DX003 (ip), vehicle: saline 106 % of control | dose: 25.0 mg/kg/injection, schedule: Q01DX009 (ip), vehicle: saline 104 % of control | dose: 25.0 mg/kg/injection, schedule: Q04DX003 (ip), vehicle: saline 98 % of control

CN1C(=O)C/C(=C/[N+](=O)[O-])c2ccccc21
inactive: dose: 50.0 mg/kg/injection, schedule: Q01DX001 (ip), vehicle: carboxymethylcellulose (CMC) 101 % of control | dose: 100.0 mg/kg/injection, schedule: Q01DX001 (ip), vehicle: carboxymethylcellulose (CMC) 97 % of control

CC(C)=C(Cl)C(C)(C)C(=O)O
inactive: [4] 103 % of control | [5] 101 % of control | [6] 97 % of control

COC(=O)CCNc1c(OC)ccc2ccccc12
inactive: [7] 101 % of control | [8] 98 % of control

Cc1cccc(C)c1-c1c2ccccc2cc2ccccc12
inactive: dose: 100.0 mg/kg/injection, schedule: Q01DX009 (ip), vehicle: saline 95 % of control | [4] 96 % of control | dose: 200.0 mg/kg/injection, schedule: Q01DX009 (ip), vehicle: saline 93 % of control | [5] 96 % of control | dose: 400.0 mg/kg/injection, schedule: Q01DX009 (ip), vehicle: saline 87 % of control | [6] 93 % of control

N#CCC(C#N)N1CCOCC1 (stereo not given)
inactive: [1] 92 % of control | [2] 104 % of control | [3] 93 % of control | [4] 97 % of control

CC(CCOC(=O)c1ccccc1)=C(c1ccccc1)c1ccccc1
inactive: dose: 100.0 mg/kg/injection, schedule: Q04DX002 (ip), vehicle: Klucel (hydroxypropylcellulose) (HPC) 107 % of control | dose: 200.0 mg/kg/injection, schedule: Q04DX002 (ip), vehicle: Klucel (hydroxypropylcellulose) (HPC) 95 % of control | dose: 400.0 mg/kg/injection, schedule: Q04DX002 (ip), vehicle: Klucel (hydroxypropylcellulose) (HPC) 95 % of control

Nc1nc(N)c2nc(CNc3ccc(Cl)c(Cl)c3)cnc2n1
inactive: dose: 1.0 mg/kg/injection, schedule: Q01DX009 (ip), vehicle: saline 103 % of control | dose: 2.0 mg/kg/injection, schedule: Q01DX009 (ip), vehicle: saline 101 % of control | dose: 4.0 mg/kg/injection, schedule: Q01DX009 (ip), vehicle: saline 94 % of control | dose: 4.0 mg/kg/injection, schedule: Q04DX003 (ip), vehicle: saline 90 % of control | dose: 8.0 mg/kg/injection, schedule: Q01DX009 (ip), vehicle: saline 90 % of control | dose: 8.0 mg/kg/injection, schedule: Q04DX003 (ip), vehicle: saline 100 % of control | dose: 16.0 mg/kg/injection, schedule: Q01DX009 (ip), vehicle: saline 87 % of control | dose: 16.0 mg/kg/injection, schedule: Q04DX003 (ip), vehicle: saline 92 % of control | dose: 32.0 mg/kg/injection, schedule: Q04DX003 (ip), vehicle: saline 97 % of control | dose: 64.0 mg/kg/injection, schedule: Q04DX003 (ip), vehicle: saline 89 % of control

CC(C)=CCCOC(N)=O
inactive: [4] 104 % of control | [5] 102 % of control | [6] 98 % of control

O=C(c1ccc(Br)cc1)C1SC2(C(=O)c3ccc(Br)cc3)SC(C(=O)c3ccc(Br)cc3)C(C(=O)c3ccc(Br)cc3)SC2(C(=O)c2ccc(Br)cc2)SC1C(=O)c1ccc(Br)cc1 (stereo not given)
inactive: dose: 75.0 mg/kg/injection, schedule: Q01DX001 (ip), vehicle: saline 100 % of control | dose: 150.0 mg/kg/injection, schedule: Q01DX001 (ip), vehicle: saline 94 % of control | dose: 300.0 mg/kg/injection, schedule: Q01DX001 (ip), vehicle: saline 94 % of control

NC(CSP(=O)(O)O)=NCC12CC3CC(CC(C3)C1)C2
inactive: dose: 10.0 mg/kg/injection, schedule: Q04DX002 (ip), vehicle: Klucel (hydroxypropylcellulose) (HPC) 102 % of control | dose: 20.0 mg/kg/injection, schedule: Q04DX002 (ip), vehicle: Klucel (hydroxypropylcellulose) (HPC) 109 % of control

C/C=C1\CCC2C(=C1C)CC1C2CC=C2CC(OC(C)=O)CCC21C (stereo not given)
inactive: [7] 97 % of control | dose: 100.0 mg/kg/injection, schedule: Q04DX003 (ip), vehicle: Klucel (hydroxypropylcellulose) (HPC) 94 % of control | dose: 200.0 mg/kg/injection, schedule: Q01DX009 (ip), vehicle: Klucel (hydroxypropylcellulose) (HPC) 87 % of control | dose: 200.0 mg/kg/injection, schedule: Q04DX003 (ip), vehicle: Klucel (hydroxypropylcellulose) (HPC) 91 % of control | [8] 90 % of control | dose: 400.0 mg/kg/injection, schedule: Q04DX003 (ip), vehicle: Klucel (hydroxypropylcellulose) (HPC) 93 % of control

CC1(C)C=CC2CC2(C)C(=O)C1 (stereo not given)
inactive: dose: 100.0 mg/kg/injection, schedule: Q04DX002 (ip), vehicle: saline with Tween-80 98 % of control | dose: 200.0 mg/kg/injection, schedule: Q04DX002 (ip), vehicle: saline with Tween-80 112 % of control | dose: 400.0 mg/kg/injection, schedule: Q04DX002 (ip), vehicle: saline with Tween-80 102 % of control

O=[N+]([O-])c1ccc(N/N=C(/Cc2ccccc2)c2ccc(Cl)cc2)c([N+](=O)[O-])c1
inactive: dose: 100.0 mg/kg/injection, schedule: Q01DX001 (ip), vehicle: saline 107 % of control | dose: 200.0 mg/kg/injection, schedule: Q01DX001 (ip), vehicle: saline 86 % of control | dose: 400.0 mg/kg/injection, schedule: Q01DX001 (ip), vehicle: saline 98 % of control

O=C(CC[n+]1ccccc1)NCCCCCCNC(=O)CC[n+]1ccccc1
inactive: dose: 5.0 mg/kg/injection, schedule: Q01DX001 (ip), vehicle: saline 107 % of control

CSc1n[nH]c(N)n1
inactive: [3] 92 % of control | dose: 200.0 mg/kg/injection, schedule: Q01DX009 (ip), vehicle: saline with Tween-80 92 % of control | dose: 400.0 mg/kg/injection, schedule: Q01DX009 (ip), vehicle: saline with Tween-80 92 % of control

O=[N+]([O-])C1(Br)c2ccccc2-c2nc3ccccc3cc21 (stereo not given)
inactive: dose: 100.0 mg/kg/injection, schedule: Q01DX001 (ip), vehicle: Klucel (hydroxypropylcellulose) (HPC) 94 % of control | dose: 200.0 mg/kg/injection, schedule: Q01DX001 (ip), vehicle: Klucel (hydroxypropylcellulose) (HPC) 97 % of control | dose: 400.0 mg/kg/injection, schedule: Q01DX001 (ip), vehicle: Klucel (hydroxypropylcellulose) (HPC) 94 % of control

O=C1NC(=O)/C(=C\c2ccc(OCc3ccccc3)c(OCc3ccccc3)c2)N1
inactive: dose: 100.0 mg/kg/injection, schedule: Q01DX001 (ip), vehicle: saline with Tween-80 88 % of control | dose: 400.0 mg/kg/injection, schedule: Q01DX001 (ip), vehicle: saline with Tween-80 96 % of control
